Source: US10800792B2, “Inhibitors of Bruton's tyrosine kinase and method of their use” (JANSSEN PHARMACEUTICA NV, priority 2015, dated 2020)

Molecular target: unphosphorylated-BTK kinase domain (UP-BTK), GST-tagged human BTK (389-659aa) (Homo sapiens (Human), UniProt Q06187)
Assay: BTK kinase Lanthascreen binding assay
Details: Lanthascreen tracer competition, 60 minutes incubation; pIC50 = negative log of the IC50 in molar
Outline: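 Lanthascreen competition binding; test compound vs fluorescent tracer on unphosphorylated BTK. Output: pIC50 (−log IC50, M).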

Sequence of unphosphorylated-BTK kinase domain (UP-BTK), GST-tagged human BTK (389-659aa) (Q06187 389-659): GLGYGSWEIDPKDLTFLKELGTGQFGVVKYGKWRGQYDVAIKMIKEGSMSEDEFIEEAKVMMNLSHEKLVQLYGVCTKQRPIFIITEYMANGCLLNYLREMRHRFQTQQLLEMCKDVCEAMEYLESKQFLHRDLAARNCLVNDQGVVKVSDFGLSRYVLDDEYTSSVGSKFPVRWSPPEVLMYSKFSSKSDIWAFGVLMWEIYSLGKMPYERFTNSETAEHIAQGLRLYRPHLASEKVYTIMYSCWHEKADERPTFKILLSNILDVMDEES

How did the “BTK_I_binding pIC50” value turn out when `C=CC(=O)N1CCC[C@@H](NC(=O)c2sc3nccc4c3c2NC(=O)N4c2cnc(Oc3ccccc3)cc2C)C1` [Example 667, (R)—N-(1-Acryloylpiperidin-3-yl)-5-(4-methyl-6-phenoxypyridin-3-yl)-4-oxo-4,5-dihydro-3H-1-thia-3,5,8-triazaacenaphthylene-2-carboxamide] was run?
Its value is 7.9.

With `C=CC(=O)N1CCC[C@H](NC(=O)c2sc3nccc4c3c2NC(=O)N4c2ccc(Oc3ccccc3)cn2)C1` [Example 795, (S)—N-(1-Acryloylpiperidin-3-yl)-4-oxo-5-(5-phenoxypyridin-2-yl)-4,5-dihydro-3H-1-thia-3,5,8-triazaacenaphthylene-2-carboxamide] as the compound, how does the “BTK_I_binding pIC50” value read?
The value was 6.4.

How did the “BTK_I_binding pIC50” value turn out when `COc1ccccc1Oc1ccc(N2C(=O)Nc3c(C(=O)NC4CCN(C#N)CC4)sc4nccc2c34)c(C)c1` [Example 884, N-(1-Cyanopiperidin-4-yl)-5-(4-(2-methoxyphenoxy)-2-methylphenyl)-4-oxo-4,5-dihydro-3H-1-thia-3,5,8-triazaacenaphthylene-2-carboxamide] was run?
Its value is 7.0.

How did the “BTK_I_binding pIC50” value turn out when `CN[C@H](C)C(=O)N1CCC[C@@H](NC(=O)c2sc3nccc4c3c2NC(=O)N4c2ccc(Oc3ccccc3)cc2C)C1` [Example 848, 5-(2-Methyl-4-phenoxyphenyl)-N—((R)-1-((R)-2-(methylamino)propanol)piperidin-3-yl)-4-oxo-4,5-dihydro-3H-1-thia-3,5,8-triazaacenaphthylene-2-carboxamide] was run?
The value was 7.6.

How did the “BTK_I_binding pIC50” value turn out when `Cc1cc(Oc2ccccc2)ccc1N1C(=O)Nc2c(C(=O)NC3CCCN(C(=O)/C(C#N)=C/C(C)(C)C)C3)sc3nccc1c23` (stereo not shown) [Example 897, (E)-N-(1-(2-Cyano-4,4-dimethylpent-2-enoyl)piperidin-3-yl)-5-(2-methyl-4-phenoxyphenyl)-4-oxo-4,5-dihydro-3H-1-thia-3,5,8-triazaacenaphthylene-2-carboxamide] was run?
The value was 6.8.

How did the “BTK_I_binding pIC50” value turn out when `C=CS(=O)(=O)N1CC[C@@H](NC(=O)c2sc3nccc4c3c2NC(=O)N4c2ccc(Oc3ccccc3)cc2C)C1` (single isomer, unassigned) [Example 834, (R)-5-(*S)-(2-Meth-4-phenoxyphenyl)-4-oxo-N-(1-(vinylsulfonyl)pyrrolidin-3-yl)-4,5-dihydro-3H-1-thia-3,5,8-triazaacenaphthylene-2-carboxamide] was run?
Its value is 8.0.

How did the “BTK_I_binding pIC50” value turn out when `Cc1cc(Oc2cccc(COc3ccccc3C#N)c2)ccc1N1C(=O)Nc2c(C(=O)NC3CCNCC3)sc3nccc1c23` [Example 857, 5-(4-(3-((2-Cyanophenoxy)methyl)phenoxy)-2-methylphenyl)-4-oxo-N-(piperidin-4-yl)-4,5-dihydro-3H-1-thia-3,5,8-triazaacenaphthylene-2-carboxamide] was run?
The value was 7.5.

Same assay, conditions: Lanthascreen tracer competition, 60 minutes incubation; pIC50 = negative log of the IC50 in molar; read-out: BTK_I_binding pIC50 (converted)

`CC(C)(C)OC(=O)N1CC[C@@H](NC(=O)c2sc3nccc4c3c2NC(=O)N4c2ccc(Oc3ccccc3)cc2)[C@H](O)C1` (relative stereo) [Example 617, trans-tert-Butyl 3-hydroxy-4-(4-oxo-5-(4-phenoxyphenyl)-4,5-dihydro-3H-1-thia-3,5,8-triazaacenaphthylene-2-carboxamido)piperidine-1-carboxylate] was tested. Which IC50 did it give?
The IC50 was 1 µM.

Same assay, conditions: pIC50 = negative log of the IC50 in molar; 60 minutes incubation, 50 nM Tracer 236

`Cc1cc(Oc2ccccc2)ccc1N1C(=O)Nc2c(C(=O)N[C@@H]3CCCN(C(=O)/C(C#N)=C/C4(N)CC4)C3)sc3nccc1c23` [Example 196, (R,E)-N-(1-(3-(1-Aminocyclopropyl)-2-cyanoacryloyl)piperidin-3-yl)-5-(2-methyl-4-phenoxyphenyl)-4-oxo-4,5-dihydro-3H-1-thia-3,5,8-triazaacenaphthylene-2-carboxamide] was tested. Which “BTK_I_binding pIC50” value did it give?
Its value is 6.8.

For `C=CC(=O)N1CC[C@@H](NC(=O)c2sc3nccc4c3c2NC(=O)N4c2ccc(S(F)(F)(F)(F)F)cc2C)C1` [Example 264, (R)—N-(1-Acryloylpyrrolidin-3-yl)-5-(2-methyl-4-(pentafluorothio)phenyl)-4-oxo-4,5-dihydro-3H-1-thia-3,5,8-triazaacenaphthylene-2-carboxamide], which “BTK_I_binding pIC50” value is on record?
The value was 6.4.

For `Cc1cc(Oc2ccccc2)ccc1N1C(=O)Nc2c(C(=O)NC3CCN(C)C(C)C3)sc3nccc1c23` (stereo not shown) [Example 203, N-(1,2-Dimethylpiperidin-4-yl)-5-(2-methyl-4-phenoxyphenyl)-4-oxo-4,5-dihydro-3H-1-thia-3,5,8-triazaacenaphthylene-2-carboxamide], which “BTK_I_binding pIC50” value is on record?
Its value is 6.5.

With `C=CC(=O)N1CCC[C@@H](NC(=O)c2sc3nccc4c3c2NC(=O)N4c2ccc(Cl)cc2)C1` [Example 256, (R)—N-(1-Acryloylpiperidin-3-yl)-5-(4-chlorophenyl)-4-oxo-4,5-dihydro-3H-1-thia-3,5,8-triazaacenaphthylene-2-carboxamide] as the compound, how does the “BTK_I_binding pIC50” value read?
Its value is 6.6.

Same assay, conditions: pIC50 = negative log of the IC50 in molar; 60 minutes incubation, 50 nM Tracer 236; read-out: BTK_I_binding pIC50 (converted)

With `Cc1cc(Oc2ccccc2)ccc1N1C(=O)Nc2c(C(=O)N[C@@H]3CCCN(C(=O)/C=C/CN)C3)sc3nccc1c23` [Example 27, (R,E)-N-(1-(4-Aminobut-2-enoyl)piperidin-3-yl)-5-(2-methyl-4-phenoxyphenyl)-4-oxo-4,5-dihydro-3H-1-thia-3,5,8-triazaacenaphthylene-2-carboxamide] as the compound, how does the IC50 read?
Its IC50 is 0.0501 µM.

How did the IC50 turn out when `Cc1cc(Oc2ccccc2)ccc1N1C(=O)Nc2c(C(=O)N[C@@H]3CCCN(C#N)C3)sc3nccc1c23` (single isomer, unassigned) [Example 35, (R)—N-(1-Cyanopiperidin-3-yl)-5-(*S)-(2-methyl-4-phenoxyphenyl)-4-oxo-4,5-dihydro-3H-1-thia-3,5,8-triazaacenaphthylene-2-carboxamide] was run?
Its IC50 is 0.0316 µM.

Same assay, conditions: unphosphorylated-BTK kinase domain, 50 nM Tracer 236, 60 minutes; pIC50 = negative log of the IC50 in molar

`CN(C)C/C=C/C(=O)N1CCC[C@@H](NC(=O)c2sc3nccc4c3c2NC(=O)N4c2ccc(Oc3ccccc3)cc2)C1` [Example 373, (R,E)-N-(1-(4-(Dimethylamino)but-2-enoyl)piperidin-3-yl)-4-oxo-5-(4-phenoxyphenyl)-4,5-dihydro-3H-1-thia-3,5,8-triazaacenaphthylene-2-carboxamide] was tested. Which “BTK_I_binding pIC50” value did it give?
Its value is 7.3.

How did the “BTK_I_binding pIC50” value turn out when `C=CC(=O)N1CCC[C@@H](NC(=O)c2sc3nccc4c3c2NC(=O)N4c2ccc(Cl)c(C(F)(F)F)c2)C1` [Example 362, (R)—N-(1-Acryloylpiperidin-3-yl)-5-(4-chloro-3-(trifluoromethyl)phenyl)-4-oxo-4,5-dihydro-3H-1-thia-3,5,8-triazaacenaphthylene-2-carboxamide] was run?
The value was 5.4.

Which “BTK_I_binding pIC50” value does the source give for `O=C(NCC1CCNC1)c1sc2nccc3c2c1NC(=O)N3c1ccc(Oc2ccccc2)cc1` (stereo not shown) [Example 453, 4-Oxo-5-(4-phenoxyphenyl)-N-(pyrrolidin-3-ylmethyl)-4,5-dihydro-3H-1-thia-3,5,8-triazaacenaphthylene-2-carboxamide] here?
Its value is 6.4.

For `Cc1cc(Oc2ccccc2)ccc1N1C(=O)Nc2c(C(=O)N[C@@H]3CCCN(C(=O)/C(F)=C/CN)C3)sc3nccc1c23` [Example 549, (R,Z)—N-(1-(4-Amino-2-fluorobut-2-enoyl)piperidin-3-yl)-5-(2-methyl-4-phenoxyphenyl)-4-oxo-4,5-dihydro-3H-1-thia-3,5,8-triazaacenaphthylene-2-carboxamide], which “BTK_I_binding pIC50” value is on record?
The value was 7.2.

For `Cc1cc(Oc2ccccc2)ccc1N1C(=O)Nc2c(C(=O)N[C@@H]3CCCN(C(=O)[C@@H]4CCN4)C3)sc3nccc1c23` [Example 386, N—((R)-1-((S)-Azetidine-2-carbonyl)piperidin-3-yl)-5-(2-methyl-4-phenoxyphenyl)-4-oxo-4,5-dihydro-3H-1-thia-3,5,8-triazaacenaphthylene-2-carboxamide], which “BTK_I_binding pIC50” value is on record?
The value was 6.9.

For `Cc1cc(Oc2ccccc2)ccc1N1C(=O)Nc2c(C(=O)N[C@@H]3CCCN(C(=O)/C(C#N)=C/C(C)(C)C)C3)sc3nccc1c23` (single isomer, unassigned) [Example 398, (R,E)-N-(1-(2-Cyano-4,4-dimethylpent-2-enoyl)piperidin-3-yl)-5-(*R)-(2-methyl-4-phenoxyphenyl)-4-oxo-4,5-dihydro-3H-1-thia-3,5,8-triazaacenaphthylene-2-carboxamide], which “BTK_I_binding pIC50” value is on record?
Its value is 6.6.

`Cc1cc(C(C)C)ccc1N1C(=O)Nc2c(C(=O)N[C@@H]3CCCNC3)sc3nccc1c23` [Example 446, (R)-5-(4-Isopropyl-2-methylphenyl)-4-oxo-N-(piperidin-3-yl)-4,5-dihydro-3H-1-thia-3,5,8-triazaacenaphthylene-2-carboxamide] was tested. Which “BTK_I_binding pIC50” value did it give?
Its value is 5.8.

`O=C(N[C@@H]1CCCNC1)c1sc2nccc3c2c1NC(=O)N3c1ccccc1` [Example 348, (R)-4-Oxo-5-phenyl-N-(piperidin-3-yl)-4,5-dihydro-3H-1-thia-3,5,8-triazaacenaphthylene-2-carboxamide] was tested. Which “BTK_I_binding pIC50” value did it give?
Its value is <5.

Which “BTK_I_binding pIC50” value does the source give for `Cc1cc(Oc2ccccc2)ccc1N1C(=O)Nc2c(C(=O)NC[C@H]3CCCN3C)sc3nccc1c23` [Example 285, (R)-5-(2-Methyl-4-phenoxyphenyl)-N-((1-methylpyrrolidin-2-yl)methyl)-4-oxo-4,5-dihydro-3H-1-thia-3,5,8-triazaacenaphthylene-2-carboxamide] here?
The value was 6.2.

Same assay, conditions: unphosphorylated-BTK kinase domain, 50 nM Tracer 236, 60 minutes; pIC50 = negative log of the IC50 in molar; read-out: BTK_I_binding pIC50 (converted)

`CC(C)Oc1ccc(N2C(=O)Nc3c(C(=O)N[C@@H]4CCCNC4)sc4nccc2c34)cc1` [Example 405, (R)-5-(4-Isopropoxyphenyl)-4-oxo-N-(piperidin-3-yl)-4,5-dihydro-3H-1-thia-3,5,8-triazaacenaphthylene-2-carboxamide] was tested. Which IC50 did it give?
Its IC50 is 3.16 µM.

Same assay, conditions: unphosphorylated-BTK kinase domain, 60 minutes incubation, 50 nM Tracer 236; pIC50 = negative log of the IC50 in molar

For `Cc1cc(OC2CCCC2)ccc1N1C(=O)Nc2c(C(=O)N[C@@H]3CCCNC3)sc3nccc1c23` [Example 919, (R)-5-(4-(cyclopentyloxy)-2-methylphenyl)-4-oxo-N-(piperidin-3-yl)-4,5-dihydro-3H-1-thia-3,5,8-triazaacenaphthylene-2-carboxamide], which “BTK_I_binding pIC50” value is on record?
Its value is 6.4.
